Data published in PubChem BioAssay (NCI).
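The concentration for 50% growth inhibition is given as GI50. At the TGI there is no net growth.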

Key:
Test in all cases: DTP human tumour cell line panel, 384-well format
A498 renal = system: A498 renal
NCI-H226 lung = system: NCI-H226 lung
SK-OV-3 ovarian = system: SK-OV-3 ovarian
UACC-257 melanoma = system: UACC-257 melanoma
MDA-MB-435 melanoma = system: MDA-MB-435 melanoma
OVCAR-5 ovarian = system: OVCAR-5 ovarian
SF-268 CNS = system: SF-268 CNS
BT-549 breast = system: BT-549 breast
SW-620 colon = system: SW-620 colon
SK-MEL-5 melanoma = system: SK-MEL-5 melanoma
MCF7 breast = system: MCF7 breast
SR leukemia = system: SR leukemia
OVCAR-4 ovarian = system: OVCAR-4 ovarian
HT29 colon = system: HT29 colon
UACC-62 melanoma = system: UACC-62 melanoma
COLO 205 colon = system: COLO 205 colon
ACHN renal = system: ACHN renal
K-562 leukemia = system: K-562 leukemia
MDA-MB-231 breast = system: MDA-MB-231 breast
NCI-H322M lung = system: NCI-H322M lung
SN12C renal = system: SN12C renal
NCI/ADR-RES ovarian = system: NCI/ADR-RES ovarian
OVCAR-8 ovarian = system: OVCAR-8 ovarian
M14 melanoma = system: M14 melanoma
HL-60(TB) leukemia = system: HL-60(TB) leukemia
RXF 393 renal = system: RXF 393 renal
SNB-19 CNS = system: SNB-19 CNS
SNB-75 CNS = system: SNB-75 CNS
NCI-H522 lung = system: NCI-H522 lung

NCC(=O)Nc1ccc(-n2nc(C(F)(F)F)cc2-c2ccc3c(ccc4ccccc43)c2)cc1
GI50 (A498 renal): 1550 nM | TGI (A498 renal): 2900 nM | GI50 (NCI-H226 lung): 1600 nM | TGI (NCI-H226 lung): 2960 nM | GI50 (SK-OV-3 ovarian): 1570 nM | TGI (SK-OV-3 ovarian): 2920 nM | GI50 (UACC-257 melanoma): 1250 nM | TGI (UACC-257 melanoma): 2510 nM | GI50 (MDA-MB-435 melanoma): 1110 nM | TGI (MDA-MB-435 melanoma): 2330 nM | GI50 (OVCAR-5 ovarian): 1660 nM | TGI (OVCAR-5 ovarian): 3040 nM | GI50 (SF-268 CNS): 1050 nM | TGI (SF-268 CNS): 2240 nM | GI50 (BT-549 breast): 1330 nM | TGI (BT-549 breast): 2620 nM | GI50 (SW-620 colon): 965 nM | TGI (SW-620 colon): 2160 nM | GI50 (SK-MEL-5 melanoma): 1120 nM | TGI (SK-MEL-5 melanoma): 2330 nM | GI50 (MCF7 breast): 904 nM | TGI (MCF7 breast): 2120 nM | GI50 (SR leukemia): 30.6 nM | TGI (SR leukemia): 104 nM | GI50 (OVCAR-4 ovarian): 1620 nM | TGI (OVCAR-4 ovarian): 2980 nM | GI50 (HT29 colon): 1090 nM | TGI (HT29 colon): 2290 nM | GI50 (UACC-62 melanoma): 1230 nM | TGI (UACC-62 melanoma): 2480 nM | GI50 (COLO 205 colon): 535 nM | TGI (COLO 205 colon): 1800 nM | GI50 (ACHN renal): 1180 nM | TGI (ACHN renal): 2430 nM | GI50 (K-562 leukemia): 218 nM | TGI (K-562 leukemia): 1520 nM | GI50 (MDA-MB-231 breast): 405 nM | TGI (MDA-MB-231 breast): 2010 nM | GI50 (NCI-H322M lung): 1420 nM | TGI (NCI-H322M lung): 2740 nM | GI50 (SN12C renal): 1420 nM | TGI (SN12C renal): 2740 nM | GI50 (NCI/ADR-RES ovarian): 1070 nM | TGI (NCI/ADR-RES ovarian): 2250 nM | GI50 (OVCAR-8 ovarian): 1130 nM | TGI (OVCAR-8 ovarian): 2360 nM | GI50 (M14 melanoma): 1270 nM | TGI (M14 melanoma): 2540 nM | GI50 (HL-60(TB) leukemia): 272 nM | TGI (HL-60(TB) leukemia): 1170 nM | GI50 (RXF 393 renal): 1270 nM | TGI (RXF 393 renal): 2530 nM | GI50 (SNB-19 CNS): 1520 nM | TGI (SNB-19 CNS): 2860 nM | GI50 (SNB-75 CNS): 1080 nM | TGI (SNB-75 CNS): 2290 nM | GI50 (NCI-H522 lung): 1070 nM | TGI (NCI-H522 lung): 2270 nM
